Experiment [1] concerns SOCE (store operated calcium entry) in CHO cells. The experiment can be described thus: Assay of SOCE (store operated calcium entry)-inhibiting action. It counts as cell-based, Chinese hamster. The conditions noted are these: CHO cells, thapsigargin; for inhibition at 10 µM / inhibition at 30 µM / inhibition at 100 µM: Cricetulus griseus, CHO, read-out: SOCE level (percentage of inhibition). In short, it runs like this:
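CHO cells in calcium-free BSS received compound, then 1 μM thapsigargin 2 min later to deplete stores; after 9 min, 2 mM calcium chloride (final) added. Percent inhibition of the rise in intracellular calcium determined at various compound concentrations.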

In experiment [2] the test system is IICR (IP3 induced calcium release) in CHO cells. The experiment can be described thus: Assay of IICR (IP3 induced calcium release)-inhibiting action. Type of experiment: cell-based, Chinese hamster. The conditions noted are these: CHO cells, 10 μM ATP; for inhibition at 10 µM / inhibition at 30 µM / inhibition at 100 µM: Cricetulus griseus, CHO, read-out: IICR level (percentage of inhibition). The method in brief:
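Inhibition (%) of the intracellular calcium increase triggered by 10 μM ATP, measured in CHO cells in BSS with calcium. Compound given 1 min after the buffer exchange and 2 min before ATP; values reported per compound concentration.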

Regarding `CC(C)N(CCO)CCC(=O)c1cccnc1` [Example 158, 2-(N-isopropylhydroxyethyl)aminoethyl-3′-pyridylketone], the inhibition at 10 µM came out at 0% in experiment [1] (test compound 10 μmol) and 30% in experiment [2] (test compound 10 μmol). For the same molecule, the figures for the inhibition at 30 µM in experiment [1] (test compound 30 μmol) and in experiment [2] (test compound 30 μmol) were 0% and 20%, respectively. In addition, the inhibition at 100 µM in experiment [1] (test compound 100 μmol) came to 0%; in experiment [2] (test compound 100 μmol), 20%.

With `CC(CN(CCO)Cc1ccccc1)C(=O)c1ccc(F)cc1` (stereo not drawn) [Example 159, 2-(N-hydroxyethylbenzyl)amino-1-methylethyl-4-fluorophenylketone], the inhibition at 10 µM in experiment [1] (test compound 10 μmol) and in experiment [2] (test compound 10 μmol) was 0% in each case. Also, the inhibition at 30 µM in experiment [1] (test compound 30 μmol) and in experiment [2] (test compound 30 μmol) was 0% throughout. The inhibition at 100 µM in experiment [1] (test compound 100 μmol) and in experiment [2] (test compound 100 μmol) was 20% throughout.

As to `CC(CN(CCO)CCO)C(=O)c1ccc(F)cc1` (stereo not drawn) [Example 160, 2-(N-bis(hydroxyethyl))amino-1-methylethyl-4-fluorophenylketone], the inhibition at 10 µM in experiment [1] (test compound 10 μmol) and in experiment [2] (test compound 10 μmol) was 0% each time. The inhibition at 30 µM was 20% in experiment [1] (test compound 30 μmol) and 0% in experiment [2] (test compound 30 μmol). The figures for the inhibition at 100 µM in experiment [1] (test compound 100 μmol) and in experiment [2] (test compound 100 μmol) were 60% and 20%, respectively.

For `CC(CN(CCO)C(C)(C)C)C(=O)c1ccc(F)cc1` (stereo not drawn) [Example 161, 2-(N-hydroxyethyl-t-butyl)amino-1-methylethyl-4-fluorophenylketone], the inhibition at 10 µM in experiment [1] (test compound 10 μmol) and in experiment [2] (test compound 10 μmol) was 0% each time. In addition, the inhibition at 30 µM in experiment [1] (test compound 30 μmol) and in experiment [2] (test compound 30 μmol) was 0% each time. Moreover, the inhibition at 100 µM in experiment [1] (test compound 100 μmol) and in experiment [2] (test compound 100 μmol) was 20% throughout.

Consider `CC(CN(Cc1ccccc1)C(C)(C)C)C(=O)c1ccc(F)cc1` (stereo not drawn) [Example 162, 2-(N-t-butylbenzyl)amino-1-methylethyl-4-fluorophenylketone], for which the inhibition at 10 µM in experiment [1] (test compound 10 μmol) and in experiment [2] (test compound 10 μmol) was 0% in each case. Besides, the inhibition at 30 µM in experiment [1] (test compound 30 μmol) and in experiment [2] (test compound 30 μmol) was 0% throughout. Further, the inhibition at 100 µM was determined as 40% in experiment [1] (test compound 100 μmol) and 0% in experiment [2] (test compound 100 μmol).

Regarding `CC(CN(C)CCO)C(=O)c1ccc(F)cc1` (stereo not drawn) [Example 163, 2-(N-hydroxyethylmethyl)amino-1-methylethyl-4-fluorophenylketone], the inhibition at 10 µM in experiment [1] (test compound 10 μmol) and in experiment [2] (test compound 10 μmol) was 0% each time. The inhibition at 30 µM in experiment [1] (test compound 30 μmol) and in experiment [2] (test compound 30 μmol) was 0% throughout. Further, the values for the inhibition at 100 µM in experiment [1] (test compound 100 μmol) and in experiment [2] (test compound 100 μmol) were 20% and 0%, respectively.

On to `Cn1cccc1C(=O)CCN(CCO)Cc1ccccc1` [Example 164, 2-(N-benzyl-2-hydroxyethyl)aminoethyl-2-(N-methylpyrrolyl)ketone], for which the inhibition at 10 µM in experiment [1] (test compound 10 μmol) and in experiment [2] (test compound 10 μmol) was 0% in each case. Moreover, the inhibition at 30 µM in experiment [1] (test compound 30 μmol) and in experiment [2] (test compound 30 μmol) was 0% in each case. Moreover, the figures for the inhibition at 100 µM in experiment [1] (test compound 100 μmol) and in experiment [2] (test compound 100 μmol) were 10% and 40%, respectively.

With `Cn1cccc1C(=O)CCN(Cc1ccccc1)C(C)(C)C` [Example 165, 2-(N-benzyl-t-butyl)aminoethyl-2-(N-methylpyrrolyl)ketone], the inhibition at 10 µM in experiment [1] (test compound 10 μmol) and in experiment [2] (test compound 10 μmol) was 0% in each case. The inhibition at 30 µM in experiment [1] (test compound 30 μmol) and in experiment [2] (test compound 30 μmol) was 0% each time. Also, the inhibition at 100 µM in experiment [1] (test compound 100 μmol) and in experiment [2] (test compound 100 μmol) was 0% throughout.

Take `CC(C)N(CCO)CCC(=O)c1ccc(F)cc1` [Example 166, 2-(N-hydroxyethylisopropyl)aminoethyl-4-fluorophenylketone]: the inhibition at 10 µM in experiment [1] (test compound 10 μmol) and in experiment [2] (test compound 10 μmol) was 0% each time. For the same molecule, the inhibition at 30 µM in experiment [1] (test compound 30 μmol) and in experiment [2] (test compound 30 μmol) was 0% each time. Further, the inhibition at 100 µM in experiment [1] (test compound 100 μmol) came to 20%; in experiment [2] (test compound 100 μmol), 0%.

For `CN(CCO)CCC(=O)c1cccn1C` [Example 167, 2-(N-methyl-2-hydroxyethyl)aminoethyl-2-(N-methylpyrrolyl)ketone], the inhibition at 10 µM in experiment [1] (test compound 10 μmol) and in experiment [2] (test compound 10 μmol) was 0% throughout. Moreover, the inhibition at 30 µM in experiment [1] (test compound 30 μmol) and in experiment [2] (test compound 30 μmol) was 0% throughout. The inhibition at 100 µM in experiment [1] (test compound 100 μmol) and in experiment [2] (test compound 100 μmol) was 0% in each case.

For the molecule `CC(C)N(CC(=O)c1ccccc1)Cc1ccccc1` [Example 168, 2-(N-isopropylbenzyl)aminomethyl-4-phenylketone], the inhibition at 10 µM in experiment [1] (test compound 10 μmol) and in experiment [2] (test compound 10 μmol) was 0% in each case. Also, the inhibition at 30 µM in experiment [1] (test compound 30 μmol) and in experiment [2] (test compound 30 μmol) was 0% each time. Also, the figures for the inhibition at 100 µM in experiment [1] (test compound 100 μmol) and in experiment [2] (test compound 100 μmol) were 50% and 70%, respectively.

Consider `CC(C)N(CCO)CCC(=O)c1cccn1C` [Example 169, 2-(N-isopropyl-2-hydroxyethyl)aminoethyl-2-(N-methylpyrrolyl)ketone], for which the inhibition at 10 µM in experiment [1] (test compound 10 μmol) and in experiment [2] (test compound 10 μmol) was 0% throughout. The inhibition at 30 µM in experiment [1] (test compound 30 μmol) and in experiment [2] (test compound 30 μmol) was 0% in each case. For the same molecule, the inhibition at 100 µM in experiment [1] (test compound 100 μmol) and in experiment [2] (test compound 100 μmol) was 0% in each case.

As for `CC(C)N(CCO)CCC(=O)c1ccc[nH]1` [Example 170, 2-(N-isopropyl-2-hydroxyethyl)aminoethyl-2-pyrrolylketone], the inhibition at 10 µM in experiment [1] (test compound 10 μmol) and in experiment [2] (test compound 10 μmol) was 0% in each case. For the same molecule, the inhibition at 30 µM in experiment [1] (test compound 30 μmol) and in experiment [2] (test compound 30 μmol) was 0% in each case. In addition, the inhibition at 100 µM in experiment [1] (test compound 100 μmol) and in experiment [2] (test compound 100 μmol) was 0% in each case.

On to `C=CC(=O)c1ccco1` [Example 171, 2-furyl vinylketone], for which the inhibition at 10 µM in experiment [1] (test compound 10 μmol) and in experiment [2] (test compound 10 μmol) was 0% each time. Also, the results for the inhibition at 30 µM in experiment [1] (test compound 30 μmol) and in experiment [2] (test compound 30 μmol) were 10% and 0%, respectively. Moreover, the inhibition at 100 µM in experiment [1] (test compound 100 μmol) was found to be 30%; in experiment [2] (test compound 100 μmol), 0%.

Take `CC(C)N(CCO)CCC(=O)c1ccco1` [Example 172, 2-(N-isopropylhydroxyethyl)aminoethyl-2-furylketone]: the “SOCE level (percentage of inhibition)” value in experiment [1] (test compound 10 μmol), in experiment [1] (test compound 30 μmol) and in experiment [1] (test compound 100 μmol) was 0% in each case. Further, in experiment [2] (test compound 10 μmol), the inhibition at 10 µM stood at 0%.

On to `O=C(CCN(CCO)Cc1ccccc1)c1ccc[nH]1` [Example 173, 2-(N-benzylhydroxyethyl)aminoethyl-2-pyrrolylketone], for which the inhibition at 10 µM in experiment [1] (test compound 10 μmol) and in experiment [2] (test compound 10 μmol) was 0% each time. The inhibition at 30 µM in experiment [1] (test compound 30 μmol) was found to be 0%; in experiment [2] (test compound 30 μmol), 50%. The inhibition at 100 µM in experiment [1] (test compound 100 μmol) was 0%; in experiment [2] (test compound 100 μmol), 80%.

As to `O=C(CCN(CCO)CCO)c1ccco1` [Example 174, 2-(N-bis(hydroxyethyl))aminoethyl-2-furylketone], the “SOCE level (percentage of inhibition)” value in experiment [1] (test compound 10 μmol), in experiment [1] (test compound 30 μmol) and in experiment [1] (test compound 100 μmol) was 0% in each case. Also, the “IICR level (percentage of inhibition)” value in experiment [2] (test compound 10 μmol), in experiment [2] (test compound 30 μmol) and in experiment [2] (test compound 100 μmol) was 0% in each case.

With `CN(CCC(=O)c1ccc[nH]1)Cc1ccccc1` [Example 175, 2-(N-benzylmethyl)aminoethyl-2-pyrrolylketone], the inhibition at 10 µM in experiment [1] (test compound 10 μmol) is 0%; in experiment [2] (test compound 10 μmol) it was 10%. Further, the inhibition at 30 µM in experiment [1] (test compound 30 μmol) came out at 0%; in experiment [2] (test compound 30 μmol) it was 10%. In addition, the inhibition at 100 µM in experiment [1] (test compound 100 μmol) was 0%; in experiment [2] (test compound 100 μmol), 20%.

With `O=C(CCNCCc1ncc[nH]1)c1cccnc1` [Example 176], the inhibition at 10 µM in experiment [1] (test compound 10 μmol) is 0%; in experiment [2] (test compound 10 μmol), 10%. For the same molecule, the inhibition at 30 µM in experiment [1] (test compound 30 μmol) turned out to be 0%; in experiment [2] (test compound 30 μmol) it was 30%. In addition, the values for the inhibition at 100 µM in experiment [1] (test compound 100 μmol) and in experiment [2] (test compound 100 μmol) were 0% and 50%, respectively.

Take `O=C(CCN(CCO)Cc1ccccc1)c1cccnc1` [Example 177, 2-(N-2-hydroxyethylbenzyl)aminoethyl-3-pyridylketone]: the inhibition at 10 µM in experiment [1] (test compound 10 μmol) and in experiment [2] (test compound 10 μmol) was 0% each time. In addition, the inhibition at 30 µM in experiment [1] (test compound 30 μmol) and in experiment [2] (test compound 30 μmol) was 0% throughout. Also, the inhibition at 100 µM in experiment [1] (test compound 100 μmol) came out at 0%; in experiment [2] (test compound 100 μmol) it was 50%.

`CC(C)N(CCO)CCCC(=O)c1ccccc1` [Example 178, 3-(N-isopropylhydroxyethyl)aminopropylphenylketone]: the inhibition at 10 µM in experiment [1] (test compound 10 μmol) was determined as 0%. Further, the inhibition at 30 µM in experiment [1] (test compound 30 μmol) turned out to be 0%. The “IICR level (percentage of inhibition)” value in experiment [2] (test compound 10 μmol), in experiment [2] (test compound 30 μmol) and in experiment [2] (test compound 100 μmol) was 0% in each case.

Take `CC(C)N(CCCC(=O)c1ccccc1)Cc1ccccc1` [Example 179, 3-(N-isopropylbenzyl)aminopropylphenylketone]: the inhibition at 10 µM in experiment [1] (test compound 10 μmol) and in experiment [2] (test compound 10 μmol) was 0% each time. Also, the inhibition at 30 µM in experiment [1] (test compound 30 μmol) and in experiment [2] (test compound 30 μmol) was 0% in each case. Besides, the inhibition at 100 µM in experiment [1] (test compound 100 μmol) and in experiment [2] (test compound 100 μmol) was 0% in each case.

Usually inhibition stands for the percentage by which the read-out fell short of the control.

Source of the values: patent US8937091B2 (Japan Science and Technology Agency, priority 2009, dated 2015).
